≈ marks a conversion by molar mass, not a printed value. Structures can show the parent of a compound that is named as a salt.

One series addresses T1, Human STING (Homo sapiens, UniProt Q86WV6, G230A/H232R/R293Q/R71H).
T1 construct: using human THP1-Blue™ ISG SEAP based reporter cell line (Invivogen); host or cells: THP1-Blue ISG cells (human monocytic THP-1 derived SEAP reporter line)
In words: Stimulation of human STING signaling in THP1 cell line (THP1-Blue ISG SEAP reporter). Format: cell-based. The settings on record: THP1-Blue ISG cells, SEAP activity, 18-20 hours. Here is the method:
Biological Assay—Stimulation of Human STING Signaling in THP1 Cell Line
Compounds were tested for their STING activation potential using human THP1-Blue™ ISG SEAP based reporter cell line (Invivogen). Briefly, THP1-Blue ISG cells (100,000 cells/well) in 96 well plate were treated with varying concentrations of test and reference compounds and incubated at 37° C. with 5% CO2 for 18-20 hours. The control untreated cells were also set up. Post incubation, the cell supernatant was tested for SEAP (Secreted Embryonic Alkaline Phosphatase) activity using the QuantiBlue™ substrate reagent (Invivogen). The formation of blue coloured product was quantified by measuring absorbance at wavelength of 620 nm using PheraStar/Tecan reader. The average of duplicate readouts for each data point was plotted in GraphPad prism 6 against the concentration of test or reference compound to calculate EC50 value. The fold of SEAP induction or increase in luminescence at different data points was estimated against the un-stimulated cell control set.

Series [1] in a line: Apparent solubility/extended kinetic solubility by UHPLC. Format: physicochemical. The conditions noted are these: aqueous buffer, thermodynamic from solid, phosphate buffer, 37° C. On the procedure: Biological Assay—Determination of Apparent Solubility/Extended Kinetic Solubility by UHPLC
Test sample preparation: About 0.5 mg of the test sample was weighed and transferred in duplicate in 1 mL glass inserts of 96 well plates. 5 μL of DMSO and 1 ml of phosphate buffer were added. Allowed for equilibrium in an orbital shaker at 37° C. for 24 hrs. Later, allowed it cool to room temperature and centrifuged the 96 well plate (at 240×10 RPM for 20 min) and supernatant material was taken into collection plate, covered it with the heat resistant aluminum sheet or supernatant material was directly taken into HPLC sample vial.
Injected diluent as blank and linearity solutions in duplicate. Recorded the chromatograms and plotted the calibration curve, concentration (X-axis) versus Area (y-axis). The correlation coefficient for calibration curve should be not less than 0.95. If above criteria passes, then injected the test samples and recorded the chromatograms. In case saturated peaks are observed, then diluted the test sample with diluent as appropriate.
Calculated the slope and intercept of the calibration curve. From the standard curve, determined the solubility of the sample in μM (micromolar).

T1 sequence (Q86WV6 whole entry R71H/G230A/H232R/R293Q): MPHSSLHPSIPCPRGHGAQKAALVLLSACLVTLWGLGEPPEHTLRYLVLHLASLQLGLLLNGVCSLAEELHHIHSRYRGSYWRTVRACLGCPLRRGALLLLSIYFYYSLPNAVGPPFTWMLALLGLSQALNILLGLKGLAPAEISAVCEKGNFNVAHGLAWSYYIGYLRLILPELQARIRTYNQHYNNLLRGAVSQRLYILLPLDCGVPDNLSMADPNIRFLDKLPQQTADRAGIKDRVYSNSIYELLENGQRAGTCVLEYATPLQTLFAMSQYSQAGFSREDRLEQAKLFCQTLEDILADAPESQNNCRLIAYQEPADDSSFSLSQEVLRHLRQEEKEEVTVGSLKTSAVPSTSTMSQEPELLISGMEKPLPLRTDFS

In the case of `CCn1nc(C)cc1C(=O)Nc1nc2cc(C(N)=O)cc3c2n1C/C=C/Cn1c(NC(=O)c2cc(C)nn2CC)nc2cc(C(=O)NCCCc4nnn[nH]4)cc(c21)OCCCO3` [Compound 3, (E)-N-(3-(1H-tetrazol-5-yl)propyl)-1,15-bis(1-ethyl-3-methyl-1H-pyrazole-5-carboxamido)-8,9,16,19-tetrahydro-7H-6,10-dioxa-2,14,15a,19a-tetraazacyclopentadeca[3,2,1-cd:8,9,10-c′d′]diindene-4,12-dicarboxamide sodium salt], at Human STING, the EC50 lay within 1 to 10 nM. Also, the solubility at 24 h in series [1] came to 928 µM.

In the case of `CCn1nc(C)cc1C(=O)Nc1nc2cc(C(N)=O)cc3c2n1C/C=C/Cn1c(NC(=O)c2cc(C)nn2CC)nc2cc(C(=O)NCCCn4cc(C(=O)O)cn4)cc(c21)OC[C@H](N1C2CCC1COC2)CO3` [Compound 19, 1-(3-((8R,E)-8-(3-oxa-8-azabicyclo[3.2.1]octan-8-yl)-12-carbamoyl-1,15-bis(1-ethyl-3-methyl-1H-pyrazole-5-carboxamido)-8,9,16,19-tetrahydro-7H-6,10-dioxa-2,14,15a,19a-tetraazacyclopentadeca[3,2,1-cd:8,9,10-c′d′]diindene-4-carboxamido)propyl)-1H-pyrazole-4-carboxylic acid sodium salt], the EC50 at Human STING was 11 to 100 nM.

At Human STING, `CCn1nc(C)cc1C(=O)Nc1nc2cc(C(N)=O)cc3c2n1C/C=C/Cn1c(NC(=O)c2cc(C)nn2CC)nc2cc(C(=O)NCCCn4cc(C(=O)O)cn4)cc(c21)OC[C@@H](N1C2CCC1COC2)CO3` [Compound 18, 1-(3-((8S,E)-8-(3-oxa-8-azabicyclo[3.2.1]octan-8-yl)-12-carbamoyl-1,15-bis(1-ethyl-3-methyl-1H-pyrazole-5-carboxamido)-8,9,16,19-tetrahydro-7H-6,10-dioxa-2,14,15a,19a-tetraazacyclopentadeca[3,2,1-cd:8,9,10-c′d′]diindene-4-carboxamido)propyl)-1H-pyrazole-4-carboxylic acid sodium salt] displayed an EC50 of 1 to 10 nM. In addition, the solubility at 24 h in series [1] stood at 250 µM.

`CCn1nc(C)cc1C(=O)Nc1nc2cc(C(N)=O)cc3c2n1C/C=C/Cn1c(NC(=O)c2cc(C)nn2CC)nc2cc(C(=O)N[C@H]4CC[C@H](C(=O)O)CC4)cc(c21)OCC(N1CC2CCC(C1)O2)CO3` (stereo partly drawn) [Compound 20, (1R,4R)-4-((E)-8-(8-oxa-3-azabicyclo[3.2.1]octan-3-yl)-12-carbamoyl-1,15-bis(1-ethyl-3-methyl-1H-pyrazole-5-carboxamido)-8,9,16,19-tetrahydro-7H-6,10-dioxa-2,14,15a,19a-tetraazacyclopentadeca[3,2,1-cd:8,9,10-c′d′]diindene-4-carboxamido)cyclohexane-1-carboxylic acid] yielded an EC50 on Human STING of 11 to 100 nM.

For `CCn1nc(C)cc1C(=O)Nc1nc2cc(C(N)=O)cc3c2n1C/C=C/Cn1c(NC(=O)c2cc(C)nn2CC)nc2cc(C(=O)NCCCn4nn[nH]c4=O)cc(c21)OCCCO3` [Compound 10, (E)-1,15-bis(1-ethyl-3-methyl-1H-pyrazole-5-carboxamido)-N-(3-(5-oxo-4,5-dihydro-1H-tetrazol-1-yl)propyl)-8,9,16,19-tetrahydro-7H-6,10-dioxa-2,14,15a,19a-tetraazacyclopentadeca[3,2,1-cd:8,9,10-c′d′]diindene-4,12-dicarboxamide], at Human STING, the EC50 was 11 to 100 nM. Also, in series [1], the solubility at 24 h was determined as 631 µM (≈ 552 µg/mL).

Regarding `CCn1nc(C)cc1C(=O)Nc1nc2cc(C(N)=O)cc3c2n1C/C=C/Cn1c(NC(=O)c2cc(C)nn2CC)nc2cc(C(=O)NCc4ncccc4C(=O)O)cc(c21)OCCCO3` [Compound 9, (E)-2-((4-carbamoyl-1,15-bis(1-ethyl-3-methyl-1H-pyrazole-5-carboxamido)-8,9,16,19-tetrahydro-7H-6,10-dioxa-2,14,15a,19a-tetraazacyclopentadeca[3,2,1-cd:8,9,10-c′d′]diindene-12-carboxamido)methyl)nicotinic acid], on Human STING, the EC50 is 11 to 100 nM. In addition, in series [1], the solubility at 24 h was 100 µM (≈ 88.4 µg/mL).

As to `CCn1nc(C)cc1C(=O)Nc1nc2cc(C(N)=O)cc3c2n1C/C=C/Cn1c(NC(=O)c2cc(C)nn2CC)nc2cc(C(=O)NCCCc4nnn[nH]4)cc(c21)OC[C@@H](N1C2CCC1COC2)CO3` [Compound 16, (8S,E)-N4-(3-(1H-tetrazol-5-yl)propyl)-8-(3-oxa-8-azabicyclo[3.2.1]octan-8-yl)-1,15-bis(1-ethyl-3-methyl-1H-pyrazole-5-carboxamido)-8,9,16,19-tetrahydro-7H-6,10-dioxa-2,14,15a,19a-tetraazacyclopentadeca[3,2,1-cd:8,9,10-c′d′]diindene-4,12-dicarboxamide sodium salt], at Human STING, the EC50 lay within 1 to 10 nM. Further, in series [1], the solubility at 24 h turned out to be 243 µM.

On Human STING, `CCn1nc(C)cc1C(=O)Nc1nc2cc(C(N)=O)cc3c2n1C/C=C/Cn1c(NC(=O)c2cc(C)nn2CC)nc2cc(C(=O)NCCCc4nnn[nH]4)cc(c21)OC[C@H](N1C2CCC1COC2)CO3` [Compound 17, (8R,E)-N4-(3-(1H-tetrazol-5-yl)propyl)-8-(3-oxa-8-azabicyclo[3.2.1]octan-8-yl)-1,15-bis(1-ethyl-3-methyl-1H-pyrazole-5-carboxamido)-8,9,16,19-tetrahydro-7H-6,10-dioxa-2,14,15a,19a-tetraazacyclopentadeca[3,2,1-cd:8,9,10-c′d′]diindene-4,12-dicarboxamide sodium salt] showed an EC50 of 11 to 100 nM.

For the compound `CCn1nc(C)cc1C(=O)Nc1nc2cc(C(N)=O)cc3c2n1C/C=C/Cn1c(NC(=O)c2cc(C)nn2CC)nc2cc(C(=O)N[C@H]4CC[C@@H](C(=O)O)CC4)cc(c21)OCCCO3` [Compound 1, (1S,4S)-4-((E)-12-carbamoyl-1,15-bis(1-ethyl-3-methyl-1H-pyrazole-5-carboxamido)-8,9,16,19-tetrahydro-7H-6,10-dioxa-2,14,15a,19a-tetraazacyclopentadeca[3,2,1-cd:8,9,10-c′d′]diindene-4-carboxamido)cyclohexane-1-carboxylic acid], on Human STING, the EC50 fell in the range of 11 to 100 nM.

In turn, `CCn1nc(C)cc1C(=O)Nc1nc2cc(C(N)=O)cc3c2n1C/C=C/Cn1c(NC(=O)c2cc(C)nn2CC)nc2cc(C(=O)N[C@H]4CC[C@H](c5nnn[nH]5)CC4)cc(c21)OCC(N1CC2CCC(C1)O2)CO3` (stereo partly drawn) [Compound 22, (E)-N-((1R,4R)-4-(1H-tetrazol-5-yl)cyclohexyl)-8-(8-oxa-3-azabicyclo[3.2.1]octan-3-yl)-1,15-bis(1-ethyl-3-methyl-1H-pyrazole-5-carboxamido)-8,9,16,19-tetrahydro-7H-6,10-dioxa-2,14,15a,19a-tetraazacyclopentadeca [3,2,1-cd:8,9,10-c′d′]diindene-4,12-dicarboxamide] yielded an EC50 at Human STING of 11 to 100 nM.

In turn, `CCn1nc(C)cc1C(=O)Nc1nc2cc(C(N)=O)cc3c2n1C/C=C/Cn1c(NC(=O)c2cc(C)nn2CC)nc2cc(C(=O)N[C@H]4CC[C@@H](c5nnn[nH]5)CC4)cc(c21)OCCCO3` [Compound 7, (E)-N-((1S,4S)-4-(1H-tetrazol-5-yl)cyclohexyl)-1,15-bis(1-ethyl-3-methyl-1H-pyrazole-5-carboxamido)-8,9,16,19-tetrahydro-7H-6,10-dioxa-2,14,15a,19a-tetraazacyclopentadeca[3,2,1-cd:8,9,10-c′d′]diindene-4,12-dicarboxamide] returned an EC50 at Human STING of 11 to 100 nM.

As a reminder, the EC50 is the concentration giving half of the maximal effect. By solubility is commonly meant the dissolved amount per volume that the medium holds.

For the origin of these results see US12479858B2, “Macrocyclic compounds as sting agonists and methods and uses thereof” (Lupin Limited, priority 2019, dated 2025).
